Source: PubChem BioAssay (NCI)
Several values for one entry are separate records, joined by “and”; a condition that tells them apart may be missing. Identical values can stand only once.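 Cultured in 96-well plates, cells were exposed to test compound for 48 hours across five concentrations. At the GI50, growth is halved. The concentration for full growth arrest is given as TGI.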

Columns and labels:
Assay in all cases: inhibition of tumour cell growth, NCI panel, 48 h
[1] = test system: SK-MEL-2 melanoma
[2] = test system: SK-MEL-5 melanoma
[3] = test system: HCT-116 colon
[4] = test system: MOLT-4 leukemia
[5] = test system: PC-3 prostate
[6] = test system: MALME-3M melanoma
[7] = test system: OVCAR-5 ovarian
[8] = test system: CCRF-CEM leukemia
[9] = test system: IGROV1 ovarian
[10] = test system: 786-0 renal

Row | Structure (SMILES) | GI50 [1] | TGI [1] | GI50 [2] | TGI [2] | GI50 [3] | TGI [3] | GI50 [4] | TGI [4] | GI50 [5] | TGI [5] | GI50 [6] | TGI [6] | GI50 [7] | TGI [7] | GI50 [8] | TGI [8] | GI50 [9] | TGI [9] | GI50 [10] | TGI [10]
1 | COc1ccc(OC)c(Nc2nc3nonc3nc2Nc2cccc(Br)c2)c1 | 0.509 µM | 3.84 µM | 297 nM | 1.57 µM | 0.53 µM | > 100 µM | 809 nM | 12.1 µM | 0.454 µM | > 100 µM | 471 nM | 5.52 µM | 2560 nM | > 100 µM | 608 nM | 17.2 µM | 2.87 µM | 42.5 µM | 1.71 µM | 13.8 µM
2 | COC(=O)C1C(C(=O)O)C2(c3ccccc3)C(=O)C1(c1ccccc1)C(c1ccccc1)=C2c1ccccc1 (configuration not stated) | 16.5 µM | 34.1 µM | 12900 nM | 27.6 µM | 19.6 µM | 35.2 µM | 14500 nM | 36 µM | 15.2 µM | 32.5 µM | 26800 nM | 59.3 µM | 19300 nM | 35.3 µM | 11700 nM | 33.6 µM | 17.2 µM | 33 µM | 21.2 µM | 37.5 µM
3 | Cc1cc(O)ccc1C1=NN(c2ccc(S(N)(=O)=O)cc2)C(=O)CC1 | 16.8 µM and 10.4 µM | 50 µM and 77.7 µM | 2100 nM and 6780 nM | 50 µM and > 100 µM | 3.5 µM and 7.27 µM | 50 µM and > 100 µM | 2670 nM and 6090 nM | 50 µM and > 100 µM | 23.5 µM and 52.1 µM | 50 µM and > 100 µM |  | 50 µM and 59.7 µM | > 100000 nM | > 100 µM | 9880 nM and 10500 nM | 50 µM and > 100 µM | 6.75 µM and 9.07 µM | 50 µM and > 100 µM | 18.9 µM and 43.6 µM | 50 µM and > 100 µM
4 | CC1=CC(=O)N(c2cccc3c(N4C(=O)C=C(C)C4=O)cccc23)C1=O | 31.5 µM | > 100 µM | 15500 nM | 36.3 µM | 1.79 µM | 4.16 µM | 3290 nM | 11.1 µM | 7.97 µM | 22.7 µM | 3130 nM | 9.33 µM | 8350 nM | 26.3 µM | 1520 nM | 11.1 µM | 3.55 µM | 16.2 µM | 7.5 µM | 23.5 µM
5 | COc1ccc2c(c1)C(=Nc1ccc(F)c(Cl)c1)c1c-2c(Nc2ccc(F)c(Cl)c2)nc2ccccc12 | 23.6 µM | > 71.8 µM | > 100000 nM | > 100 µM | 27.8 µM | > 100 µM | 21200 nM | 41.3 µM | > 94.6 µM | > 100 µM | > 100000 nM | > 100 µM | > 76600 nM | > 100 µM | 804 nM | 3.99 µM | 30.1 µM | > 100 µM | 14.9 µM | 42.8 µM
6 | Cc1ccc(/C=N/NC(=O)c2ccccc2Oc2ccccc2)o1 | 25.5 µM | > 90.9 µM | 16400 nM | 33.3 µM | 48.8 µM | > 100 µM | 22800 nM | 66.5 µM | 30.3 µM | > 100 µM | 36800 nM | > 100 µM | > 93000 nM | > 100 µM | 30900 nM | > 100 µM | 59.5 µM | > 100 µM | > 100 µM | > 100 µM
7 | N#C/C(=C\c1cc(O)c(O)c(O)c1)C(N)=O |  | > 100 µM |  | > 100 µM |  | > 100 µM |  | > 100 µM |  | > 100 µM |  | > 100 µM |  | > 100 µM |  | > 76.2 µM |  | > 100 µM |  | > 100 µM
8 | CN1CCN(CCCNC(=O)c2c3c(n4ccccc24)C(=O)c2ncccc2C3=O)CC1 | 2.67 µM | 11.4 µM | 547 nM | 1.54 µM | 0.632 µM | 4.93 µM | 2130 nM | 4.87 µM | 1.37 µM | 9 µM | 376 nM | 0.99 µM | 2420 nM | > 53.2 µM | 2160 nM | > 27.8 µM | 1.28 µM | 5.06 µM | 1.63 µM | 22.3 µM
9 | O=C(Oc1ccccc1)N(c1ccccc1)c1ccccc1 | 30.6 µM | > 100 µM | 15000 nM | 29.9 µM | 18.6 µM | 76.8 µM | 28300 nM | > 100 µM | 35.1 µM | > 100 µM | 25000 nM | 91.4 µM | 45900 nM | > 100 µM | 37000 nM | > 100 µM | 38.1 µM | > 100 µM | 26.2 µM | 83.4 µM
10 | C/C(=N\NC(=O)c1ccncc1)c1sc(-n2nc(-c3ccccc3)cc2-c2ccccc2)nc1C |  | > 31.6 µM |  | > 31.6 µM |  | > 31.6 µM |  | > 31.6 µM |  | > 31.6 µM |  | > 100 µM |  | > 31.6 µM |  | > 31.6 µM |  | > 100 µM |  | > 31.6 µM
11 | Cc1ccc(N)cc1[As]=[As]c1cc(N)ccc1C (configuration not stated) | 1.97 µM | 3.54 µM | 1510 nM | 2.91 µM | 1.64 µM | 3.15 µM | 1940 nM | 8.82 µM | 1.71 µM | 3.38 µM | 679 nM | 2.03 µM | 2070 nM | 3.73 µM | 298 nM | 2.36 µM | 1.88 µM | 4.18 µM | 1.64 µM | 3.03 µM
12 | COc1cccc2c1C(=O)c1c(O)c3c(c(O)c1C2=O)C[C@@](O)(C(=O)CO)CC3OC1CC(N)C(OC2CCCCO2)C(C)O1 (some centres not stated) |  | 4.1 µM | 29.1 nM | 0.179 µM and 1.08 µM |  | 1.16 µM and 3.31 µM | < 1 nM | 0.276 µM and 0.576 µM |  | 0.363 µM | 3.77 nM |  | 68.2 nM | 2.08 µM and 8.5 µM | 3.27 nM |  | 0.0158 µM |  | 0.0131 µM | 
13 | O/N=C(\CC(O)(C(F)(F)F)C(F)(F)F)c1cccs1 |  | > 10 µM |  | > 10 µM |  | > 10 µM |  | > 10 µM |  | > 10 µM |  | > 10 µM |  | > 10 µM |  | > 10 µM |  | > 10 µM |  | > 10 µM
14 | O=C1C=C(NCCO)c2nccc3c2c1nc1ccccc13 | 27.7 µM | 88.2 µM | 16300 nM | 35 µM | 11.5 µM | 38.7 µM | 5940 nM | > 100 µM | 27.3 µM | > 100 µM | 17400 nM | 49 µM | 28600 nM | > 100 µM | 21300 nM | > 100 µM | 20.4 µM | > 100 µM | 31.5 µM | > 100 µM
15 | Cn1c(CCCC(=O)O)nc2cc(N(CCCl)CCCl)ccc21 | > 100 µM | > 100 µM | > 71600 nM | > 100 µM | > 80.5 µM | > 100 µM | 3600 nM | 22.6 µM | > 100 µM | > 100 µM | 49600 nM | > 100 µM | > 100000 nM | > 100 µM | 28100 nM | > 77.7 µM | 70 µM | > 100 µM | > 80.9 µM | > 100 µM
16 | CCc1nc(C)cn1C(=O)OCc1nc2nc(Cl)nc(N3CCOCC3)c2[nH]1 | 1.72 µM | 3.29 µM | 1640 nM | 3.01 µM | 0.364 µM | 2.3 µM | 1010 nM | 3.79 µM | 1.25 µM | 3.01 µM | 1560 nM | 2.95 µM | 1440 nM | 2.99 µM | 302 nM | 1.19 µM | 0.501 µM | 1.86 µM | 1.61 µM | 3.29 µM
17 | Cn1ncc(C#N)c1-c1ccc2c(c1)CN([C@H](CN)Cc1cccc(F)c1)C2=O | 16.6 µM | 44.8 µM | 12100 nM | 24.9 µM | 12.9 µM | 28.7 µM | 413 nM | 27.4 µM | 0.393 µM | > 70.5 µM | 1330 nM | 11.3 µM | 18600 nM | > 100 µM | 932 nM | > 100 µM | 0.0489 µM | 1.59 µM | 0.145 µM | 14.6 µM
18 | CC[C@@H](C)/C=C(C)/C=C/C(=O)c1c(O)c(-c2ccc(OC(=O)[C@@]34CC[C@@](C)(C(=O)O3)C4(C)C)cc2)cn(O)c1=O | 15.6 µM | > 50 µM | 1400 nM | 4.63 µM | 1.47 µM | > 50 µM | 1040 nM | > 50 µM | 20.4 µM | > 50 µM | 1500 nM | > 50 µM | 2790 nM | > 50 µM | 1120 nM | > 50 µM | 1.72 µM | 41.4 µM | 1.55 µM | 4.98 µM
19 | CCN1CCN(c2nc(C)cc(NCc3cc(Nc4ccnc5cc(Cl)ccc45)ccc3F)n2)CC1 | 2.12 µM | 4.1 µM | 1700 nM | 3.12 µM | 1.01 µM | 2.75 µM | 2440 nM | 16.6 µM | 1.72 µM | 8.66 µM | 1780 nM | 3.66 µM | 2200 nM | 6.71 µM | 2060 nM | 15.2 µM | 2.2 µM | 7.27 µM | 1.54 µM | 3.13 µM
20 | Cc1ccc(C[As+](c2ccccc2)(c2ccccc2)c2ccccc2)cc1 | 0.887 µM | 4.34 µM | 230 nM | 0.719 µM | 0.645 µM | > 36.2 µM | 2410 nM | 13.6 µM | 0.409 µM | 10.4 µM | 297 nM | 11.6 µM | 1740 nM | > 87.2 µM | 1080 nM | 55 µM | 1.17 µM | 25.1 µM | 3.15 µM | > 46.4 µM
